Reference: ChEMBL document CHEMBL1151106, “Chemical studies on mexican plants used in traditional medicine, VI. Additional new 4-phenylcoumarins from Exostema caribaeum” (1988)
Values after ≈ are worked out from the molar mass of the structure shown. Active and inactive are the calls of the source. The calls are words filed in the database; no cut-off is given here.

The compounds below were run on Candida albicans (assay: Antifungal activity against Candida albicans).
Assay type: functional
`COc1cc(O)c2c(-c3ccc(O)c(O)c3)cc(=O)oc2c1` was tested, and the Activity was “inactive”.
With `COc1cc(O[C@@H]2O[C@H](CO)[C@@H](O)[C@H](O)[C@H]2O)c2c(-c3ccc(O)c(O)c3)cc(=O)oc2c1` the Activity was “Active”.
`COc1cc2c3c(cc(=O)oc3c1)-c1cc(O)c(OC)cc1O2` was tested, and the Activity was “inactive”.
Compound `COc1cc(O[C@@H]2O[C@H](CO)[C@H](O)[C@H](O)[C@H]2O)c2c(-c3ccc(O)c(O)c3)cc(=O)oc2c1` has an MIC of 12.5 µg/mL (≈ 27 µM).
For `COc1cc(O[C@@H]2O[C@H](COC(C)=O)[C@H](O)[C@H](O)[C@H]2O)c2c(-c3ccc(O)c(O)c3)cc(=O)oc2c1`, the Activity was “Active”.
In the case of `COc1ccc(-c2cc(=O)oc3cc(OC)cc(O[C@@H]4O[C@H](CO)[C@H](O)[C@H](O)[C@H]4O)c23)cc1`, the Activity is reported as “Active”.
In the case of `COc1cc(O)c2c(-c3ccc(OC)c(O)c3)cc(=O)oc2c1`, the Activity is reported as “Active”.
